Counter-ions that a name gives are not always drawn.

Sequence of PAPD5 enzyme (Q8NDF8 whole entry): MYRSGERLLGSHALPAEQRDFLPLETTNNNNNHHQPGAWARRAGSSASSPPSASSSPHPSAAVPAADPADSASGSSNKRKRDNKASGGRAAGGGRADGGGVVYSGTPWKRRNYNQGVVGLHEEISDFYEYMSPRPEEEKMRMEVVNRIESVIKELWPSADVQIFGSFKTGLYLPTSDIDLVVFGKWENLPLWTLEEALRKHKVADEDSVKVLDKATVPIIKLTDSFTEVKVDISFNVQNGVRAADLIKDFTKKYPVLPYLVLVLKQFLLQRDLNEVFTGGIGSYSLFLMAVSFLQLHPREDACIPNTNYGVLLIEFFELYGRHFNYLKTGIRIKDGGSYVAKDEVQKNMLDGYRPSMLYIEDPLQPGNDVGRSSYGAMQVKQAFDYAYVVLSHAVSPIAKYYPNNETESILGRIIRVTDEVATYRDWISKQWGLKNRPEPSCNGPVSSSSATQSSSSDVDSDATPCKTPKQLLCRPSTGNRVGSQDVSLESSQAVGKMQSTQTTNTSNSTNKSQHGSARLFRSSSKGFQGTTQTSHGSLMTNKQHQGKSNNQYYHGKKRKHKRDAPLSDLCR

The assay addresses PAPD5 enzyme (Homo sapiens, UniProt Q8NDF8). As to the kind of experiment: PAPD5 assay (AMP incorporation onto 3'-terminus of RNA substrate, fluorescence quench). It counts as biochemical. The following applies: PAPD5 protein 0.3 nM, ATP 50 μM, 30 minutes preincubation, room temperature; read-out: Potency PAPD5 IC50. In a few lines:
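Enzyme at 0.3 nM with 50 μM ATP, pH 7.3 HEPES buffer, preincubated with compound 30 minutes at room temperature; 5 nM 5′-fluorescein RNA substrate and 20 nM TAMRA quench probe then added. Initial rates from kinetic fluorescein decrease over ~90 minutes; IC50 by four-parameter fit.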
A word on the IC50: it is the midpoint of a concentration-inhibition curve. On to `CN(C)C1CN(c2ccc(-n3cc(C(=O)O)c(=O)c4cc(C#N)c(N5Cc6cccnc6C5)cc43)cn2)C1` [Example 36, 6-cyano-7-(5,7-dihydro-6H-pyrrolo[3,4-b]pyridin-6-yl)-1-(6-(3-(dimethylamino)azetidin-1-yl)pyridin-3-yl)-4-oxo-1,4-dihydroquinoline-3-carboxylic acid], for which the IC50 was not above 1000 nM.
The same measure for `O=C(O)c1cn(-c2ccc(O)cc2F)c2cc(-n3ncc4cccc(Br)c43)c(F)cc2c1=O` [Example 9, 7-(7-bromo-1H-indazol-1-yl)-6-fluoro-1-(2-fluoro-4-hydroxyphenyl)-4-oxo-1,4-dihydroquinoline-3-carboxylic acid]: not above 1000 nM.
The same measure for `N#Cc1cc2c(=O)c(C(=O)O)cn(CC3CCCCC3)c2nc1N1Cc2cccnc2C1` [Example 63, 6-cyano-1-(cyclohexylmethyl)-7-(5,7-dihydro-6H-pyrrolo[3,4-b]pyridin-6-yl)-4-oxo-1,4-dihydro-1,8-naphthyridine-3-carboxylic acid]: not above 1000 nM; for `COCCOc1ccc(-n2cc(C(=O)O)c(=O)c3cc(C#N)c(N4Cc5cccnc5C4)cc32)cn1` [Example 58, 6-cyano-7-(5,7-dihydro-6H-pyrrolo[3,4-b]pyridin-6-yl)-1-(6-(2-methoxyethoxy)pyridin-3-yl)-4-oxo-1,4-dihydroquinoline-3-carboxylic acid]: not above 1000 nM; for `Cc1cc(NC(=O)OC(C)(C)C)ncc1-n1cc(C(=O)O)c(=O)c2cc(Cl)c(N3Cc4ccccc4C3)nc21` [Example 165, 1-(6-((tert-butoxycarbonyl)amino)-4-methylpyridin-3-yl)-6-chloro-7-(isoindolin-2-yl)-4-oxo-1,4-dihydro-1,8-naphthyridine-3-carboxylic acid]: not above 1000 nM.
The same measure for `COc1cnc(-n2cc(C(=O)O)c(=O)c3cc(F)c(N4Cc5cccnc5C4)cc32)cn1` [Example 75, 7-(5,7-dihydro-6H-pyrrolo[3,4-b]pyridin-6-yl)-6-fluoro-1-(5-methoxypyrazin-2-yl)-4-oxo-1,4-dihydroquinoline-3-carboxylic acid]: not above 1000 nM.
Turning to `O=C(O)c1cn(-c2ccc(O)c(F)c2)c2cc(N3Cc4ccccc4C3)c(F)cc2c1=O` [Example 31, 6-fluoro-1-(3-fluoro-4-hydroxyphenyl)-7-(isoindolin-2-yl)-4-oxo-1,4-dihydroquinoline-3-carboxylic acid], the IC50 is not above 1000 nM.
The same measure for `Cc1cc(N)ncc1-n1cc(C(=O)O)c(=O)c2cc(Cl)c(N3Cc4cccc(F)c4C3)nc21` [Example 158, 1-(6-amino-4-methylpyridin-3-yl)-6-chloro-7-(4-fluoroisoindolin-2-yl)-4-oxo-1,4-dihydro-1,8-naphthyridine-3-carboxylic acid]: not above 1000 nM; for `Cc1cc(N)ncc1-n1cc(C(=O)O)c(=O)c2cc(Cl)c(N3CCc4cccnc4C3)nc21` [Example 180, 1-(6-amino-4-methylpyridin-3-yl)-6-chloro-7-(5,8-dihydro-1,7-naphthyridin-7(6H)-yl)-4-oxo-1,4-dihydro-1,8-naphthyridine-3-carboxylic acid]: not above 1000 nM.
For the compound `Cc1cc(N)ncc1-n1cc(C(=O)O)c(=O)c2cc(Cl)c(N3CCc4ncncc4C3)nc21` [Example 198, 1-(6-amino-4-methylpyridin-3-yl)-6-chloro-7-(7,8-dihydropyrido[4,3-d]pyrimidin-6(5H)-yl)-4-oxo-1,4-dihydro-1,8-naphthyridine-3-carboxylic acid], the IC50 is not above 1000 nM.
The same measure for `COCCN1CCC(Cn2cc(C(=O)O)c(=O)c3cc(Cl)c(N4Cc5cccnc5C4)cc32)CC1` [Example 125, 6-chloro-7-(5,7-dihydro-6H-pyrrolo[3,4-b]pyridin-6-yl)-1-((1-(2-methoxyethyl)piperidin-4-yl)methyl)-4-oxo-1,4-dihydroquinoline-3-carboxylic acid hydrochloride]: not above 1000 nM.
The same measure for `CCc1cc(N)ncc1-n1cc(C(=O)O)c(=O)c2cc(Cl)c(N3Cc4cccnc4C3)cc21` [Example 117, 1-(6-amino-4-ethylpyridin-3-yl)-6-chloro-7-(5,7-dihydro-6H-pyrrolo[3,4-b]pyridin-6-yl)-4-oxo-1,4-dihydroquinoline-3-carboxylic acid]: not above 1000 nM; for `N#Cc1cc2c(=O)c(C(=O)O)cn(-c3ccc(O)nc3)c2cc1N1Cc2cccnc2C1` [Example 56, 6-cyano-7-(5,7-dihydro-6H-pyrrolo[3,4-b]pyridin-6-yl)-1-(6-hydroxypyridin-3-yl)-4-oxo-1,4-dihydroquinoline-3-carboxylic acid]: not above 1000 nM; for `N#Cc1cc2c(=O)c(C(=O)O)cn(-c3ccc(N)nc3)c2cc1N1Cc2cccnc2C1` [Example 48, 1-(6-aminopyridin-3-yl)-6-cyano-7-(5,7-dihydro-6H-pyrrolo[3,4-b]pyridin-6-yl)-4-oxo-1,4-dihydroquinoline-3-carboxylic acid]: not above 1000 nM.
The same measure for `CC(C)(C)OC(=O)N1CCC(n2cc(C(=O)O)c(=O)c3cc(Cl)c(N4Cc5cccnc5C4)nc32)CC1` [Example 73, 1-(1-(tert-butoxycarbonyl)piperidin-4-yl)-6-chloro-7-(5,7-dihydro-6H-pyrrolo[3,4-b]pyridin-6-yl)-4-oxo-1,4-dihydro-1,8-naphthyridine-3-carboxylic acid]: not above 1000 nM.
For `Cc1cc(NC(=O)OC(C)(C)C)ncc1-n1cc(C(=O)O)c(=O)c2cc(Cl)c(N3CCc4cccnc4C3)nc21` [Example 182, 1-(6-((tert-butoxycarbonyl)amino)-4-methylpyridin-3-yl)-6-chloro-7-(5,8-dihydro-1,7-naphthyridin-7(6H)-yl)-4-oxo-1,4-dihydro-1,8-naphthyridine-3-carboxylic acid], the IC50 was not above 1000 nM.
The same measure for `CC(=O)N1CCC(Cn2cc(C(=O)O)c(=O)c3cc(Cl)c(N4Cc5cccnc5C4)cc32)CC1` [Example 122, 1-((1-acetylpiperidin-4-yl)methyl)-6-chloro-7-(5,7-dihydro-6H-pyrrolo[3,4-b]pyridin-6-yl)-4-oxo-1,4-dihydroquinoline-3-carboxylic acid]: not above 1000 nM.
The same measure for `Cc1cc(N)ncc1-n1cc(C(=O)O)c(=O)c2cc(Cl)c(N3CCc4ccccc4C3)nc21` [Example 176, 1-(6-amino-4-methylpyridin-3-yl)-6-chloro-7-(3,4-dihydroisoquinolin-2(1H)-yl)-4-oxo-1,4-dihydro-1,8-naphthyridine-3-carboxylic acid]: not above 1000 nM; for `Cc1cc(N2CCC2)ncc1-n1cc(C(=O)O)c(=O)c2cc(Cl)c(N3Cc4cccnc4C3)nc21` [Example 91, 1-(6-(azetidin-1-yl)-4-methylpyridin-3-yl)-6-chloro-7-(5,7-dihydro-6H-pyrrolo[3,4-b]pyridin-6-yl)-4-oxo-1,4-dihydro-1,8-naphthyridine-3-carboxylic acid]: not above 1000 nM.
For the compound `COc1cc2c(=O)c(C(=O)O)cn(-c3cnc(N)cc3C)c2cc1N1Cc2cccnc2C1` [Example 139, 1-(6-amino-4-methylpyridin-3-yl)-7-(5,7-dihydro-6H-pyrrolo[3,4-b]pyridin-6-yl)-6-methoxy-4-oxo-1,4-dihydroquinoline-3-carboxylic acid], the IC50 is not above 1000 nM.
As for `Cc1cc(NC(=O)C2CCC2)ncc1-n1cc(C(=O)O)c(=O)c2cc(Cl)c(N3Cc4cccnc4C3)nc21` [Example 174, 6-chloro-1-(6-(cyclobutanecarboxamido)-4-methylpyridin-3-yl)-7-(5,7-dihydro-6H-pyrrolo[3,4-b]pyridin-6-yl)-4-oxo-1,4-dihydro-1,8-naphthyridine-3-carboxylic acid], the 50% inhibitory concentration (IC50) was not above 1000 nM.
For `Cc1cc(NC(=O)OC(C)(C)C)ncc1-n1cc(C(=O)O)c(=O)c2cc(Cl)c(N3CCc4ccncc4C3)nc21` [Example 187, 1-(6-((tert-butoxycarbonyl)amino)-4-methylpyridin-3-yl)-6-chloro-7-(3,4-dihydro-2,7-naphthyridin-2(1H)-yl)-4-oxo-1,4-dihydro-1,8-naphthyridine-3-carboxylic acid], the IC50 was not above 1000 nM.
With `Cc1cc(N2CCC2)ncc1-n1cc(C(=O)O)c(=O)c2cc(Cl)c(N3Cc4cccnc4C3)cc21` [Example 189, 1-(6-(azetidin-1-yl)-4-methylpyridin-3-yl)-6-chloro-7-(5,7-dihydro-6H-pyrrolo[3,4-b]pyridin-6-yl)-4-oxo-1,4-dihydroquinoline-3-carboxylic acid], the IC50 was not above 1000 nM.
For the compound `CCOC(=O)c1cn(-c2ccc(Cl)nc2)c2cc(N3Cc4cccnc4C3)c(Cl)cc2c1=O` [Example 90, Ethyl 6-chloro-1-(6-chloropyridin-3-yl)-7-(5,7-dihydro-6H-pyrrolo[3,4-b]pyridin-6-yl)-4-oxo-1,4-dihydroquinoline-3-carboxylate], the IC50 is not above 1000 nM.
The same measure for `N#Cc1cc2c(=O)c(C(=O)O)cn(-c3cnc(N)cn3)c2cc1N1Cc2cccnc2C1` [Example 96, 1-(5-aminopyrazin-2-yl)-6-cyano-7-(5,7-dihydro-6H-pyrrolo[3,4-b]pyridin-6-yl)-4-oxo-1,4-dihydroquinoline-3-carboxylic acid]: not above 1000 nM; for `COc1cnc(-n2cc(C(=O)O)c(=O)c3cc(F)c(N4Cc5cccnc5C4)nc32)cn1` [Example 103, 7-(5,7-dihydro-6H-pyrrolo[3,4-b]pyridin-6-yl)-6-fluoro-1-(5-methoxypyrazin-2-yl)-4-oxo-1,4-dihydro-1,8-naphthyridine-3-carboxylic acid]: not above 1000 nM.
The same measure for `N#Cc1cc2c(=O)c(C(=O)O)cn(CC3CCC3)c2nc1N1Cc2cccnc2C1` [Example 7, 6-cyano-1-(cyclobutylmethyl)-4-oxo-7-{5H,6H,7H-pyrrolo[3,4-b]pyridin-6-yl}-1,4-dihydro-1,8-naphthyridine-3-carboxylic acid]: not above 1000 nM.
Take `CCN(CCOC)c1cc2c(cc1Cl)c(=O)c(C(=O)O)cn2-c1cnc(N)cc1C` [Example 138, 1-(6-amino-4-methylpyridin-3-yl)-6-chloro-7-(ethyl(2-methoxyethyl)amino)-4-oxo-1,4-dihydroquinoline-3-carboxylic acid]: the IC50 was not above 1000 nM.
